Patent publication US20250145589A1, “PYRIDINE DERIVATIVE AND USE THEREOF” (SICHUAN HUIYU PHARMACEUTICAL CO., LTD., priority 2021, published 2025)
Read-outs that look alike come from different tables or passages of the source.

Tests used:
[1] = biological target: PI3Kα (Homo sapiens (Human), UniProt P42336); experiment: Inhibition of PI3Kα efficacy assay (ADP-Glo kinase assay); format: biochemical; settings: read-out: PI3Kα inhibitory activity (IC50)
Procedure, shortened: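 Eight five-fold dilutions of compound (2 mM DMSO stock) tested; kinase reaction with PI and ATP ran 60 min at RT, followed by ADP-Glo and detection reagent steps of 40 min each. Four-parameter logistic fitting gave IC50 values.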

[2] = biological target: PI3Kδ (Homo sapiens (Human), UniProt O00329); experiment: Inhibition of PI3Kδ efficacy assay (ADP-Glo kinase assay); format: biochemical; settings: read-out: PI3Kδ inhibitory activity (IC50)
Method: Test Example 2: Inhibition of PI3Kδ Efficacy assay The ADP-Glo™ kinase assay was used to assess the inhibition of PI3Kδ with our compounds. The utilized proteins and assay reagents were obtained from the ADP-Glo™ Kinase Assay Kit (Promega). Initially, a 2 mM stock solution of the test compound (dissolved in DMSO) was serially diluted in five-fold concentrations using DMSO to obtain eight working solutions 1 (200×) Subsequently, each of the eight working solutions 1 was further diluted in a 20-fold gradient by adding 5 μL into 95 μL of ddH2O, resulting in eight working solutions 2 (10×). […] Subsequently, 2 μL of 2.5×PI and ATP solution mixture were added to each well, mixed, and incubated at RT for 60 minutes. Then, 5 μL of ADP-Glo (containing 10 mM MgCl2) reagent was added to each well, mixed, and incubated at RT for 40 minutes. Finally, 10 μL of the Kinase Detection Reagent was added to each well, mixed, and incubated at RT for 40 minutes. Luminescence values were recorded using a multi-mode microplate reader with luminescence channel settings, and the inhibitory rate was calculated using the following formula: [formula] Data were analyzed using GraphPad Prism with log(inhibitor) vs. response—Variable Slope(four parameters) fitting calculations for IC50 values.

[3] = tested on: NCI-H358 cells (KRAS G12C mutant); experiment: NCI-H358 cell proliferation inhibition (CellTiter-Glo); format: cell-based; settings: Homo sapiens, NCI-H358, 72 h; H358 cells (G12C mutation), 3 days, Table 6; read-out: NCI-H358 (IC50)

Sequence of PI3Kα (P42336 whole entry): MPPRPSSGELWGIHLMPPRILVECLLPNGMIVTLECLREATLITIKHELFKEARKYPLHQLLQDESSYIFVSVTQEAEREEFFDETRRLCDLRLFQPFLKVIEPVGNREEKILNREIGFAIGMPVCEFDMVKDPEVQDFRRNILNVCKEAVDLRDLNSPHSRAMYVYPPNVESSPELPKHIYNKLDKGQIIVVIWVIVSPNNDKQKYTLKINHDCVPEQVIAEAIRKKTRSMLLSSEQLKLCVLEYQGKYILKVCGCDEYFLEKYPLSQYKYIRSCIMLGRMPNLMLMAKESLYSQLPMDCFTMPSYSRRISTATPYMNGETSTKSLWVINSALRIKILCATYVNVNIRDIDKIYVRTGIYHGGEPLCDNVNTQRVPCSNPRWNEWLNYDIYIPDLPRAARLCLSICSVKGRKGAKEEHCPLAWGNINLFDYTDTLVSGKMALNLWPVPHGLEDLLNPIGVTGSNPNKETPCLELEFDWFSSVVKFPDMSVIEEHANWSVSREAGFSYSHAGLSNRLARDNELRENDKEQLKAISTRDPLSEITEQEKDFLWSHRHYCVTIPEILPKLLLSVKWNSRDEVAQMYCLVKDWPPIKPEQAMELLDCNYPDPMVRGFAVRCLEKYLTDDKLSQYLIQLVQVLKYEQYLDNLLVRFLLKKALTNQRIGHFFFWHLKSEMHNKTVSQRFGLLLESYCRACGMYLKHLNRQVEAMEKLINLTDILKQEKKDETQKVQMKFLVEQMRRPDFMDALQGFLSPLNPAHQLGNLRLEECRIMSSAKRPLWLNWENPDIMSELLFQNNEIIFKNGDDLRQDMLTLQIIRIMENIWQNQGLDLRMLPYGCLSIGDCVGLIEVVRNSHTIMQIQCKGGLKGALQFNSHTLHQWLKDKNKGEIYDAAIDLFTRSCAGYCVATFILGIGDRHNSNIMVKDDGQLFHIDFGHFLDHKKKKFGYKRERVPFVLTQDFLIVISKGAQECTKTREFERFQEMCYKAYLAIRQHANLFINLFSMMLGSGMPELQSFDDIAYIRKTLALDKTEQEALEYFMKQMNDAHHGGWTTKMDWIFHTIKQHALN
Sequence of PI3Kα (P27986 whole entry partner): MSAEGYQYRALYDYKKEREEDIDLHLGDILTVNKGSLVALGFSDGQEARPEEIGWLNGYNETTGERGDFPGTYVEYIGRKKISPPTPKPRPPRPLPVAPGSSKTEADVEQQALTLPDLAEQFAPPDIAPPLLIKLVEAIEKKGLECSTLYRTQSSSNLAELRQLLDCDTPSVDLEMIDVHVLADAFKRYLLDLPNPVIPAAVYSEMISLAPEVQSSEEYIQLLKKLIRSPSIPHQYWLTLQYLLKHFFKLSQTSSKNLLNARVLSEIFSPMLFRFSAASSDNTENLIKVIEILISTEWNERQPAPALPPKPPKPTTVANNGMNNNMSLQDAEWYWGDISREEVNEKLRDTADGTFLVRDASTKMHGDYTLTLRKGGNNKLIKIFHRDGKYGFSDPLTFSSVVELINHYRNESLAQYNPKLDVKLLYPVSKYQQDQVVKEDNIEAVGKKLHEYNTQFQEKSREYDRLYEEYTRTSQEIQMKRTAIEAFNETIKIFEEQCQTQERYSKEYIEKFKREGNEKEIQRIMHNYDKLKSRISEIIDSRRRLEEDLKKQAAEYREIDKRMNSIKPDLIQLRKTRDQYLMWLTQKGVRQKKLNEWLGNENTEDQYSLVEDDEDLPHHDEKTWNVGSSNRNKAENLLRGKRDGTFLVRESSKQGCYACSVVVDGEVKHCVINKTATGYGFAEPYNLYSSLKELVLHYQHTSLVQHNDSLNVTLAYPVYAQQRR
Sequence of PI3Kδ (O00329 whole entry): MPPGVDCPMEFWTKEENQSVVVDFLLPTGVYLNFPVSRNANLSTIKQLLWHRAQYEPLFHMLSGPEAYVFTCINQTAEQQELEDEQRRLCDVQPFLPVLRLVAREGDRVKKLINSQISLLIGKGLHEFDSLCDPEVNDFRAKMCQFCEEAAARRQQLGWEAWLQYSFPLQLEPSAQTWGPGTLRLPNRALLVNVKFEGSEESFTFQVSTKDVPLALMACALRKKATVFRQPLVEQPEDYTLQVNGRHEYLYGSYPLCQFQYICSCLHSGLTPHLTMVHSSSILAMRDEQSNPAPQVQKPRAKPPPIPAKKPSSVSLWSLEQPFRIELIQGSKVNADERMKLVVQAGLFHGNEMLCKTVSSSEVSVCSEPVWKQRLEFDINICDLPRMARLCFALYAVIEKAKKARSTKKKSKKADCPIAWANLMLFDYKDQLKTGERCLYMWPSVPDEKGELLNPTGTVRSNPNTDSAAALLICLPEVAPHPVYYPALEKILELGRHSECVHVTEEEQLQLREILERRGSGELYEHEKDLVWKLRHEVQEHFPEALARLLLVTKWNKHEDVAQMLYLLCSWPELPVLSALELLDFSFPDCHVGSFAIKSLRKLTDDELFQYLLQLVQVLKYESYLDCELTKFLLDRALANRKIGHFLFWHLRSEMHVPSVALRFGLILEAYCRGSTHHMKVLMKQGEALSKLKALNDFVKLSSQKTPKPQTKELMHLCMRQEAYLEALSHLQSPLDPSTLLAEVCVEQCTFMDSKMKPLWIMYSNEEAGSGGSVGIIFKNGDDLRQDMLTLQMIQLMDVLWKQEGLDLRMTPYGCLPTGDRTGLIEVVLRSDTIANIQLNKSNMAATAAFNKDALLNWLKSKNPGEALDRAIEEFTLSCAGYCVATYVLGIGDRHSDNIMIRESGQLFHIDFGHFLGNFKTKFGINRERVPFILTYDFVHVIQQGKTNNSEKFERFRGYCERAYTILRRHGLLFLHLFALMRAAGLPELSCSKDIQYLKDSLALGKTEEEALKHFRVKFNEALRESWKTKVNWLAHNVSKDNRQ
Sequence of PI3Kδ (P27986 whole entry partner): as the sequence (P27986 whole entry partner) above

C=CC(=O)N1CCN(c2ncnc3ccc(-c4cnc(OC)c(NS(=O)(=O)C5CCCCC5)c4)cc23)CC1 [Example 25, N-(5-(4-(4-acryloylpiperazin-1-yl)quinazolin-6-yl)-2-methoxypyridin-3-yl)cyclohexanesulfonamide]
IC50 ([1]; Table 1): 26.9 nM | IC50 ([2]; Table 1): 127 nM | IC50 [3]: 288 nM

COc1ncc(-c2ccc3ncnc(N4CCN(C(=O)/C=C/C(C)=O)CC4)c3c2)cc1NS(=O)(=O)C1CCCCC1 [Example 26, (E)-N-(2-methoxy-5-(4-(4-(4-oxopent-2-enoyl)piperazin-1-yl)quinazolin-6-yl)pyridin-3-yl)cyclohexanesulfonamide]
IC50 ([1]; Table 1): 44.6 nM | IC50 ([2]; Table 1): 265 nM | IC50 [3]: 142 nM

C=CC(=O)N1CCN(c2ncnc3ccc(-c4cnc(Cl)c(NS(=O)(=O)c5ccc(F)cc5F)c4)cc23)CC1 [Example 33, N-(5-(4-(4-acryloylpiperazin-1-yl)quinazolin-6-yl)-2-chloropyridin-3-yl)-2,4-difluorobenzenesulfonamide]
IC50 ([1]; Table 1): 12.6 nM | IC50 ([2]; Table 1): 68.7 nM | IC50 [3]: 333 nM

C=CC(=O)N1CCN(c2ncnc3ccc(-c4cnc(Cl)c(NS(=O)(=O)c5ccc(Cl)s5)c4)cc23)CC1 [Example 35, N-(5-(4-(4-acryloylpiperazin-1-yl)quinazolin-6-yl)-2-chloropyridin-3-yl)-5-chlorothiophene-2-sulfonamide]
IC50 ([1]; Table 1): 5.8 nM | IC50 ([2]; Table 1): 117 nM | IC50 [3]: 900 nM

CC(=O)/C=C/C(=O)N1CCN(c2ncnc3ccc(-c4cnc(Cl)c(NS(=O)(=O)c5ccc(Cl)s5)c4)cc23)CC1 [Example 36, (E)-5-chloro-N-(2-chloro-5-(4-(4-(4-oxopent-2-enoyl)piperazin-1-yl)quinazolin-6-yl)pyridin-3-yl)thiophene-2-sulfonamide]
IC50 ([1]; Table 1): 21.5 nM | IC50 ([2]; Table 1): 140 nM | IC50 [3]: 278 nM

C=CC(=O)N1CCN(c2ncnc3c2CN(c2cnc(OC)c(NS(=O)(=O)c4ccc(F)cc4F)c2)CC3)CC1 [Example 41, N-(5-(4-(4-acryloylpiperazin-1-yl)-7,8-dihydropyrido[4,3-d]pyrimidin-6 (5H)-yl)-2-methoxypyridin-3-yl)-2,4-difluorobenzenesulfonamide]
IC50 ([1]; Table 1): 7.6 nM | IC50 ([2]; Table 1): 10.1 nM | IC50 [3]: 4290 nM

C=C(F)C(=O)N1CCN(c2ncnc3ccc(-c4cnc(OC)c(NS(=O)(=O)c5c(F)cccc5F)c4)cc23)CC1 [Example 43, 2,6-difluoro-N-(5-(4-(4-(2-fluoroacryloyl)piperazin-1-yl)quinazolin-6-yl)-2-methoxypyridin-3-yl) benzenesulfonamide]
IC50 ([1]; Table 2): 2.5 nM | IC50 ([2]; Table 2): 12.9 nM | IC50 [3]: 27.9 nM

COc1ncc(-c2ccc3ncnc(N4CCN(C(=O)/C=C/C(F)(F)F)CC4)c3c2)cc1NS(=O)(=O)c1c(F)cccc1F [Example 44, (E)-2,6-difluoro-N-(2-methoxy-5-(4-(4-(4,4,4-trifluorobut-2-enoyl)piperazin-1-yl)quinazolin-6-yl)pyridin-3-yl) benzenesulfonamide]
IC50 ([1]; Table 2): 4.3 nM | IC50 ([2]; Table 2): 17.5 nM | IC50 [3]: 41.6 nM

C=C(F)C(=O)N1CCN(c2ncnc3ccc(-c4cnc(OC)c(NS(=O)(=O)c5c(F)cccc5F)c4)cc23)[C@@H](C)C1 [Example 45, (S)-2,6-difluoro-N-(5-(4-(4-(2-fluoroacryloyl)-2-methylpiperazin-1-yl)quinazolin-6-yl)-2-methoxypyridin-3-yl) benzenesulfonamide]
IC50 ([1]; Table 2): 2.8 nM | IC50 ([2]; Table 2): 38.6 nM | IC50 [3]: 164 nM

C=C(F)C(=O)N1CC2(CCN(c3ncnc4ccc(-c5cnc(OC)c(NS(=O)(=O)c6c(F)cccc6F)c5)cc34)CC2)C1 [Example 47, 2,6-difluoro-N-(5-(4-(2-(2-fluoroacryloyl)-2,7-diazaspiro[3.5]nonan-7-yl)quinazolin-6-yl)-2-methoxypyridin-3-yl) benzenesulfonamide]
IC50 ([1]; Table 2): 2.2 nM | IC50 ([2]; Table 2): 25.2 nM | IC50 [3]: 34.3 nM

C=C(F)C(=O)N1CC2(CCN(c3ncnc4ccc(-c5cnc(OC)c(NS(=O)(=O)c6c(F)cccc6F)c5)cc34)C2)C1 [Example 48, 2,6-difluoro-N-(5-(4-(2-(2-fluoroacryloyl)-2,6-diazaspiro[3.4]octan-6-yl)quinazolin-6-yl)-2-methoxypyridin-3-yl) benzenesulfonamide]
IC50 ([1]; Table 2): 0.63 nM | IC50 ([2]; Table 2): 13.2 nM | IC50 [3]: 52.6 nM

C=CC(=O)N1CC2(CCN(c3ncnc4ccc(-c5cnc(OC)c(NS(=O)(=O)c6c(F)cccc6F)c5)cc34)CC2)C1 [Example 50, N-(5-(4-(2-acryloyl-2,7-diazaspiro[3.5]nonan-7-yl)quinazolin-6-yl)-2-methoxypyridin-3-yl)-2,6-difluorobenzene-sulfonamide]
IC50 ([1]; Table 2): 0.61 nM | IC50 ([2]; Table 2): 11.4 nM | IC50 [3]: 31.1 nM

C=CC(=O)N1CC(N2CCN(c3ncnc4ccc(-c5cnc(OC)c(NS(=O)(=O)c6ccc(F)cc6F)c5)cc34)CC2)C1 [Example 55, N-(5-(4-(4-(1-acryloylazetidin-3-yl)piperazin-1-yl)quinazolin-6-yl)-2-methoxypyridin-3-yl)-2,4-difluorobenzene-sulfonamide]
IC50 ([1]; Table 2): 1.2 nM | IC50 ([2]; Table 2): 43.5 nM | IC50 [3]: 39.5 nM

C=C(F)C(=O)N1CC(N2CCN(c3ncnc4ccc(-c5cnc(OC)c(NS(=O)(=O)c6ccc(F)cc6F)c5)cc34)CC2)C1 [Example 57, 2,4-difluoro-N-(5-(4-(4-(1-(2-fluoroacryloyl)azetidin-3-yl)piperazin-1-yl)quinazolin-6-yl)-2-methoxypyridin-3-yl)benzenesulfon-amide]
IC50 ([1]; Table 2): 1.9 nM | IC50 ([2]; Table 2): 33.4 nM | IC50 [3]: 29.9 nM

C=C(F)C(=O)N1CC2(CCN(c3ncnc4ccc(-c5cnc(OC)c(NS(=O)(=O)c6ccc(F)cc6F)c5)cc34)C2)C1 [Example 60, 2,4-difluoro-N-(5-(4-(2-(2-fluoroacryloyl)-2,6-diazaspiro[3.4]octan-6-yl)quinazolin-6-yl)-2-methoxy-pyridin-3-yl) benzene-sulfonamide]
IC50 ([1]; Table 2): 3.9 nM | IC50 ([2]; Table 2): 13.5 nM | IC50 [3]: 48.2 nM

COc1ncc(-c2ccc3ncnc(N4CCN(C(=O)/C=C/c5ncco5)CC4)c3c2)cc1NS(=O)(=O)c1ccc(F)cc1F [Example 62, (E)-2,4-difluoro-N-(2-methoxy-5-(4-(4-(3-(oxazol-2-yl)acryloyl)piperazin-1-yl)quinazolin-6-yl)pyridin-3-yl) benzene-sulfonamide]
IC50 ([1]; Table 2): 11.8 nM | IC50 ([2]; Table 2): 12.5 nM | IC50 [3]: 15.1 nM

COC/C=C/C(=O)N1CCN(c2ncnc3ccc(-c4cnc(OC)c(NS(=O)(=O)c5ccc(F)cc5F)c4)cc23)CC1 [Example 64, (E)-2,4-difluoro-N-(2-methoxy-5-(4-(4-(4-methoxybut-2-enoyl)piperazin-1-yl)quinazolin-6-yl)pyridin-3-yl) benzene-sulfonamide]
IC50 ([1]; Table 2): 16.7 nM | IC50 ([2]; Table 2): 14.6 nM | IC50 [3]: 12.6 nM

C=C(COC)C(=O)N1CCN(c2ncnc3ccc(-c4cnc(OC)c(NS(=O)(=O)c5ccc(F)cc5F)c4)cc23)CC1 [Example 65, 2,4-difluoro-N-(2-methoxy-5-(4-(4-(2-(methoxy-methyl)acryloyl)piperazin-1-yl)quinazolin-6-yl)pyridin-3-yl) benzene-sulfonamide]
IC50 ([1]; Table 2): 3.9 nM | IC50 ([2]; Table 2): 53 nM | IC50 [3]: 25.1 nM

C=C(OC)C(=O)N1CCN(c2ncnc3ccc(-c4cnc(OC)c(NS(=O)(=O)c5ccc(F)cc5F)c4)cc23)CC1 [Example 66, 2,4-difluoro-N-(2-methoxy-5-(4-(4-(2-methoxy-acryloyl)piperazin-1-yl)quinazolin-6-yl)pyridin-3-yl) benzene-sulfonamide]
IC50 ([1]; Table 2): 13.8 nM | IC50 ([2]; Table 2): 14.8 nM | IC50 [3]: 13.5 nM

C=C(F)C(=O)N1C[C@H](C)N(c2ncnc3ccc(-c4cnc(OC)c(NS(=O)(=O)c5ccc(F)cc5F)c4)cc23)C[C@H]1C [Example 68, 2,4-difluoro-N-(5-(4-((2S,5R)-4-(2-fluoroacryloyl)-2,5-dimethyl-piperazin-1-yl)quinazolin-6-yl)-2-methoxy-pyridin-3-yl) benzene-sulfonamide]
IC50 ([1]; Table 2): 1.4 nM | IC50 ([2]; Table 2): 27.7 nM | IC50 [3]: 861 nM

COc1ncc(-c2ccc3ncnc(N4CCC5(CC=CC5=O)CC4)c3c2)cc1NS(=O)(=O)c1c(F)cccc1F [Example 71, 2,6-difluoro-N-(2-methoxy-5-(4-(1-oxo-8-azaspiro[4,5]dec-2-en-8-yl)quinazolin-6-yl)pyridin-3-yl)benzenesulfonamide]
IC50 ([1]; Table 2): 2.1 nM | IC50 ([2]; Table 2): 31.5 nM | IC50 [3]: 75 nM

COc1ncc(-c2ccc3ncnc(N4CCN(C(=O)C5=CC(=O)CCC5)CC4)c3c2)cc1NS(=O)(=O)c1ccc(F)cc1F [Example 72, 2,4-difluoro-N-(2-methoxy-5-(4-(4-(3-oxocyclohex-1-ene-1-carbonyl)piperazin-1-yl)quinazolin-6-yl)pyridin-3-yl)benzenesulfonamide]
IC50 ([1]; Table 2): 5.9 nM | IC50 ([2]; Table 2): 24.3 nM | IC50 [3]: 14.4 nM
